Inhibition and mortality data for four compounds are collected here from patent publication US11882835B2, “Benzimidazole compound having an optionally halogenated alkylenedioxy group or salt thereof, agricultural and horticultural insecticide comprising the compound or the salt, and method for using the insecticide” (NIHON NOHYAKU CO., LTD., priority 2018, dated 2024).

One assay concerns Haemonchus contortus. Description: Larval motility assay on Haemonchus contortus. It counts as in vivo. The settings on record: 96 h, 4 days, relative to DMSO only, read-out: percent motility inhibition, H. contortus L1 stage larvae. As for the experimental part: Larval motility assay on Haemonchus contortus DMSO diluted solutions of various compounds of the present invention were added at the final concentration of 50 ppm to the wells of a 96-well plate containing a predetermined conditioned medium. Twenty L1 stage larvae of H. contortus were introduced into each well of the 96-well plate. The plate was allowed to stand for 4 days, and then larval motility was examined. The percent motility inhibition in the wells of each treatment was calculated relative to the wells of treatment with DMSO only.

The next assay deals with Rhipicephalus sanguineus. Briefly: Assay for transdermal parasiticidal activity against nymphs of Rhipicephalus sanguineus. It counts as in vivo. The following applies: 48 h, read-out: mortality rate, nymphs of R. sanguineus. The text has this:
Assay for Transdermal Parasiticidal Activity Against Nymphs of Rhipicephalus sanguineus
DMSO diluted solutions of various compounds of the present invention were individually diluted to the final concentration of 100 ppm with an acetone/triton solution and applied to the inside of vented sample bottles. After overnight drying, ten nymphs of R. sanguineus were introduced into each bottle, and the mortality rate was examined two days later. Aberrant adults were regarded as the dead.

A further assay concerns Dirofilaria immitis. Briefly: Larval motility assay on Dirofilaria immitis. The class given is in vivo. The settings on record: 72 h, 3 days, relative to DMSO only, read-out: percent motility inhibition, D. immitis L1 stage larvae. As for the experimental part: Larval Motility Assay on Dirofilaria immitis
Five hundred L1 stage larvae of D. immitis were diluted in a predetermined conditioned medium and introduced into each well of a 96-well plate. DMSO diluted solutions of various compounds of the present invention were added at the final concentration of 50 ppm to the wells of the 96-well plate. The plate was allowed to stand for 3 days, and then larval motility was examined. The percent motility inhibition in the wells of each treatment was calculated relative to the wells of treatment with DMSO only.

The next assay has as its system Ctenocephalides felis. Briefly: Assay for oral parasiticidal activity against adults of Ctenocephalides felis. The class given is in vivo. The following applies: read-out: mortality rate, adults of C. felis. The procedure:
Assay for Oral Parasiticidal Activity Against Adults of Ctenocephalides felis
Newly-emerged adults of C. felis were placed into test cages (10 adults per test cage). DMSO diluted solutions of various compounds of the present invention were added to aliquots of bovine blood at the final concentration of 50 ppm and orally administered to the adults of C. felis using a feeder. The mortality rate was examined on the following day. Aberrant adults were regarded as the dead.

A further assay relates to Laodelphax striatellus. Description: Insecticidal test on Laodelphax striatellus (rice seedling dip). The following applies: in Oryza sativa, 192 h, read-out: activity level (corrected mortality rate) of L. striatellus.
A further assay has as its system Plutella xylostella. Briefly: whole plant or invertebrate. The following applies: in Brassica rapa, 144 h, read-out: activity level (corrected mortality rate) of P. xylostella.

A value given as a limit tells only on which side of the number the result lay.

As usually defined, the inhibition is the relative decrease from the control value, in per cent. One may read the mortality as the share of the test organisms that died. As to `CCS(=O)(=O)c1cc(C2CC2)cnc1-c1nc2cc3c(cc2n1C)OC(F)(F)O3` [Compound 1-3, 6-(5-cyclopropyl-3-ethylsulfonyl-pyridin-2-yl)-2,2-difluoro-5-methyl-5H-[1,3]dioxolo[4′,5′:4,5]benzo[1,2-d]imidazole], the inhibition at 50 ppm in the assay on Haemonchus contortus and with Dirofilaria immitis was at least 50% each time. Also, the mortality at 100 ppm in the assay with Rhipicephalus sanguineus is at least 50%. The mortality at 50 ppm with Ctenocephalides felis is at least 50%. For the same compound, the mortality at 500 ppm with Laodelphax striatellus and with Plutella xylostella was 100% each time.
`CCS(=O)(=O)c1cc(C2CC2)cnc1-c1nc2cc3c(cc2n1C(F)F)OC(F)(F)O3` [Compound 1-9, 6-(5-cyclopropyl-3-ethylsulfonylpyridin-2-yl)-2,2-difluoro-5-difluoromethyl-5H-[1,3]dioxolo[4′,5′:4,5]benzo[1,2-d]imid azole]: in the assay on Plutella xylostella, the mortality at 500 ppm came to 100%.
In the case of `CCSc1cc(C2CC2)cnc1-c1nc2cc3c(cc2n1C)OC(F)(F)O3` [Compound 1-1, 6-(5-cyclopropyl-3-ethylthiopyridin-2-yl)-2,2-difluoro-5-me thyl-5H-[1,3]dioxolo[4′,5′:4,5]benzo[1,2-d]imidazole], the mortality at 500 ppm in the assay with Laodelphax striatellus and in the assay with Plutella xylostella was 100% in each case.
For `CCSc1cc(C2CC2)cnc1-c1nc2cc3c(cc2n1C(F)F)OC(F)(F)O3` [Compound 1-7, 6-(5-cyclopropyl-3-ethylthiopyridin-2-yl)-2,2-difluoro-5-di fluoromethyl-5H-[1,3]dioxolo[4′,5′:4,5]benzo[1,2-d]imidazole], the mortality at 500 ppm in the assay with Plutella xylostella came to 100%.
